Experimental data as given in US20150320773A1, “TREATMENT OF INFLAMMATION” (Vascular Biogenics Ltd., priority 2011, published 2015).
Blank lines part the entries; values can stand above or below the molecule they belong to.

Columns and labels:
[1] = system: Human monocytes (CD14+ cells); test: In vitro cell migration (trans-well chemotaxis) assay of human monocytes; format: cell-based; settings: for reduction of monocyte chemotaxis towards MCP-1 and RANTES (50 ng/ml each): 30 min pre-incubation, PC 5 μg/ml, partially oxidized PAPC 40 μg/ml, PGPC 5 μg/ml, VB-201 5 μg/ml
Procedure: Following incubation, cells were loaded to the upper chamber and allowed to migrate for 3.5 hours towards 0.5% fetal bovine serum/RPMI-1640 medium supplemented with recombinant human MCP-1 and RANTES (50 ng/ml each).
In order to further ascertain the significance of ERK1/2 phosphorylation and MEK1/2 phosphorylation to monocyte chemotaxis, the effect of the RAF inhibitor GW5074, which reduces MEK and ERK phosphorylation, on monocyte chemotaxis was determined in a trans-well migration assay using a combination of MCP-1 ([…]) and RANTES (70 ng/ml) as attractant. Monocytes were pre-treated with 5 μM GW5074 for 30 minutes prior to seeding in the migration chamber.
For this purpose, monocytes from healthy donors were pre-incubated for 30 min with either solvent (0.005% ethanol/PBS), phosphatidylcholine (PC; 5 μg/ml), partially oxidized PAPC (24 h oxidation; 40 μg/ml) or PGPC (5 μg/ml), and allowed to migrate towards recombinant human MCP-1 (CCL2; ligand for CCR2) and RANTES (CCL5; ligand for CCR1, CCR3, CCR5, US28) as attractants (50 ng/ml each). […]

human monocytes = test: ROS formation in human monocytes (DCF, FACS); format: cell-based; settings: overnight; VB-201 10 μg/ml, PGPC 10 μg/ml, OxPAPC 100 μg/ml; relative to PBS
Procedure: Detection of ROS was performed through FACS quantification of the oxidation product dichlorodihydrofluorescein (DCF). Data are mean±SD from 3-4 experiments performed in duplicates. FIG. 23B is a histogram from a representative experiment showing DCF levels in treated cells.

THP-1 cells = test: Trans-well chemotaxis assay of THP-1 cells; format: cell-based, human; settings: Wortmannin 1 μmol/L, Rapamycin 1.1 μmol/L, GW5074 1 μmol/L
Procedure: For chemo-attraction of monocytes, RANTES (100 ng/ml), MIP-1α (50 ng/ml) or MCP-1 (50 ng/ml) were dissolved in 0.5% fetal bovine serum(FBS)/RPMI-1640 medium and placed at the lower chamber of QCM™ 24-well migration assay plate (Corning-Costar; 5 μm pores). For chemo-attraction of CD4+ cells, 0.5% FBS/RPMI-1640 solution containing RANTES (100 ng/ml) and SDF-1α (50 ng/ml) was used, using the same plate setting. Migration assay was conducted by seeding 300,000 treated cells in the upper chamber, followed by incubation of 3-4 hours. Subsequently, the number of cells which migrated to the medium in the lower compartment was determined by FACS.
Data are mean f SD from 4 experiments in triplicates, normalized to untreated cells. **, p<0.001.

TLR4 = target: T1, TLR4 (Mus musculus, UniProt Q9QUK6); settings: RAW 264.7 murine macrophages
T1 sequence (Q9QUK6 26-835): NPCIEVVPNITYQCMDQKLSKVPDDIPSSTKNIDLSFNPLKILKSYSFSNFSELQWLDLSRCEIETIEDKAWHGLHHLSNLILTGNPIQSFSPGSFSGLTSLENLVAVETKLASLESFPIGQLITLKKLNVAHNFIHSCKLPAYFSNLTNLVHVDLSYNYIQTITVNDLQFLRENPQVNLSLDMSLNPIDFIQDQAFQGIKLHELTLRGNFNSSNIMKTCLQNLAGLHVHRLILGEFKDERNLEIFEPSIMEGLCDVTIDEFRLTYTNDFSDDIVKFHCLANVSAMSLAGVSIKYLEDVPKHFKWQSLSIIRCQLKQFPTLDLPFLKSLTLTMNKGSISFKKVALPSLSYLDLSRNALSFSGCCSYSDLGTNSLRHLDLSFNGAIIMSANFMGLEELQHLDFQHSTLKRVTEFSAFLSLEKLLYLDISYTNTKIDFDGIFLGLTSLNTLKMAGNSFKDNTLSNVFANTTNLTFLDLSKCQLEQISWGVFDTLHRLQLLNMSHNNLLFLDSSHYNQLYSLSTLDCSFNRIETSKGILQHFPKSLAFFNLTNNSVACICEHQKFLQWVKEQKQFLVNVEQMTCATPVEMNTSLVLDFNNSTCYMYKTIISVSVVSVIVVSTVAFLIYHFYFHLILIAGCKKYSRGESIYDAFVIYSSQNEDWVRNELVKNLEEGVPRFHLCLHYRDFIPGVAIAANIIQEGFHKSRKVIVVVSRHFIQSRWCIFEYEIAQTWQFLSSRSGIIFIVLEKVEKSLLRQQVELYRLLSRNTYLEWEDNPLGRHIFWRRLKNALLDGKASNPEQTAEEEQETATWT
T1 sequence (Q9JHF9 19-160 partner): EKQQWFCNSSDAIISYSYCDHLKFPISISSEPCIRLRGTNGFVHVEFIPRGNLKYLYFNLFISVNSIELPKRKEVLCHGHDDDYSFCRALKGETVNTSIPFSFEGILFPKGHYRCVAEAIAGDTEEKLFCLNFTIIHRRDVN
Procedure: Cells were washed and re-suspended in lysis buffer containing 1:100 dithiothreitol (DTT) (Bio-Lab), and phosphatase and protease inhibitors (Thermo Scientific). Samples were loaded on a precasted Criterion TGX gel (BIO-RAD, UK) and transferred onto nitrocellulose membrane. Blots were blocked with 5% milk or bovine serum albumin (BSA) in TBST (Tris buffer saline with TWEEN 20) for 1 hour, followed by incubation with primary and secondary antibodies. Membranes were developed using the ECL kit (Thermo Scientific).
Toll-like receptors were activated in mouse BMDCs (bone marrow dendritic cells) by specific agonists, and the effect of receptor activation was determined via Western blot for phosphorylation of p38 MAP kinase, which is downstream of TLRs.

Molecule: phosphatidylcholine [PC, reference compound]
- reduction of monocyte chemotaxis towards MCP-1 and RANTES (50 ng/ml each) [1]: did not reduce the number of migrating cells

- ROS formation in human monocytes (human monocytes): no effect on ROS formation
Molecule: CCCCCCCCCCCCCCCC(=O)OCC(COP(=O)([O-])OCC[N+](C)(C)C)OC(=O)CCCC(=O)O (stereo not drawn) [PGPC, 1-palmitoyl-2-glutaryl-phosphatidylcholine, reference compound]
- reduction of monocyte chemotaxis towards MCP-1 and RANTES (50 ng/ml each) [1]: ~50%

Molecule: O=C1Nc2ccc(I)cc2C1=Cc1cc(Br)c(O)c(Br)c1 [GW5074, 3-(3,5-dibromo-4-hydroxy-benzylidene)-5-iodo-1,3-dihydro-indol-2-one, reference compound]
- chemotaxis of THP-1 cells in vitro (THP-1 cells): decrease chemotaxis of THP-1 cells
- reduction of monocyte migration ([1]; 5 μM GW5074, 30 minutes, MCP-1 (50 ng/nl) and RANTES (70 ng/ml)): about 80%

Molecule: CCCCCCCCOC[C@H](COP(=O)([O-])OCC[N+](C)(C)C)OCCCCC(=O)O [VB-207, (R)-1-octyl-2-(4′-carboxyl)butyl-sn-glycero-3-phosphocholine]
- LPS-induced signaling (TLR4): neither VB-207 nor OB-VB207 exhibited such an inhibitory effect
